# According to patent publication US5589477A, “Pyrimidine derivatives and drugs” (Nippon Shinyaku Company, Limited, priority 1990, dated 1996):
# Counter-ions that a name gives are not always drawn.
# System: mice
# Test: Acute toxicity (mice, p.o.)
# Assay type: in vivo
# Settings: 1000 mg/kg p.o., male mice, 72 hours
# Protocol: Male mice, 6 weeks of age (4 mice/group) were deprived of foods overnight. Test drugs suspended in 0.5% methyl cellulose solution were administered orally to the mice. Whether the animals were dead or not was observed 72 hours after the treatment of the drugs.
row,Compound,Lethality (Number of dead animals/Number of animals used)
1,"Cc1cc(O[C@H]2CN3CCC2CC3)nc(-c2ccc(O)cc2)n1 [Example 58, (R)-(-)-4-(1-azabicyclo[2,2,2]octo-3-yloxy)-2-(4-hydroxyphenyl) 6-methylpyrimidine maleate]",0/4
2,"Cc1cc(OCCN2CCN(C(c3ccccc3)c3ccccc3)CC2)nc(-c2ccccc2)n1 [Example 13, 4-[2-(4-diphenylmethylpiperazino)ethoxy]-6-methyl-2-phenylpyrimidine]",0/4
3,"COc1ccc(-c2nc(C)cc(N3CCN(C(c4ccccc4)c4ccccc4)CC3)n2)cc1 [Example 4, 4-(4-diphenylmethylpiperazino)-2-(4-methoxyphenyl)-6-methylpyrimidine]",0/4
4,"Cc1cc(OCCN2CCN(c3ccccc3)CC2)nc(-c2ccccc2)n1.O=C(O)/C=C\C(=O)O [Example 11, 4-Methyl-2-phenyl-6-[2-(4-phenylpiperazino)ethoxy] pyrimidine maleate]",0/4
5,"COc1ccc(-c2nc(C)cc(OCCN3CCN(C(c4ccccc4)c4ccccc4)CC3)n2)cc1 [Example 3, 4-[2-(4-diphenylmethylpiperazino)ethoxy]-2-(4-methoxyphenyl)-6-methylpyrimidine]",0/4
6,"Cc1cc(O[C@H]2CN3CCC2CC3)nc(-c2ccc(Cl)cc2)n1 [Example 44, (R)-(-)-4-(1-azabicyclo[2,2,2]octo-3-yloxy)-2-(4-chlorophenyl) 6-methylpyrimidine maleate]",0/4
7,"COc1ccc(-c2nc(C)cc(OCCN3CCN(c4ccccc4)CC3)n2)cc1 [Example 21, 2-(4-methoxyphenyl)-4-methyl-6-[2-(4-phenylpiperazino)ethoxy]pyrimidine]",0/4
8,"Cc1cc(N2CCN(C(c3ccccc3)c3ccccc3)CC2)nc(-c2ccccc2)n1 [Example 35, 4-(4-diphenylmethylpiperazino)-6-methyl-2-phenylpyrimidine]",0/4

# Target: T1, muscarinic M1 receptors (Rattus norvegicus, UniProt P08482)
# T1 construct: receptor membrane preparations from rat brain; from tissue; host or cells: rat brain membranes
# T1 sequence (P08482 1-460): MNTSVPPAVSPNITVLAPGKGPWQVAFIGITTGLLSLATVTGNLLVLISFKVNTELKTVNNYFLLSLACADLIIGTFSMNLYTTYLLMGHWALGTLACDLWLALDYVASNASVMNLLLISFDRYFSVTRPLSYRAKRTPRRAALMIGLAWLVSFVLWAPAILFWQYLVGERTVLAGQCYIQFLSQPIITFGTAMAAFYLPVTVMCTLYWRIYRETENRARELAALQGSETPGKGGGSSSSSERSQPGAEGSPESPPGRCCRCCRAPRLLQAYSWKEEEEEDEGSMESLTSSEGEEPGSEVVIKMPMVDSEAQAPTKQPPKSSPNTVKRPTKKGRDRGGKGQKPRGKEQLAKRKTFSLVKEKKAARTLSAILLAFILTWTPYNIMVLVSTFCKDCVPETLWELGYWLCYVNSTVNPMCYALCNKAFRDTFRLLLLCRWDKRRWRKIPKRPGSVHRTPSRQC
# Test: Binding assay for muscarinic M1 receptors ([^3 H]pirenzepine displacement, rat brain membranes)
# Settings: 1 nM [^3 H]pirenzepine, pH 7.4, 25° C., 60 minutes
# Protocol: (3) Effect on muscarinic M1 receptors
# Binding assay for muscarinic M1 receptors was carried out according to the method of Watson and Yamamura [Life Sci. 3001-3011(1983)]. Namely, the receptor membrane preparations from rat brain were incubated with 1 nM [^3 H]pirenzepine in 10 mM Na/K phosphate buffer solution (pH 7.4) at 25° C. for 60 minutes. 1 μM of atropine was used as a displacer.
row,Compound,IC50 [nM]
1,"Cc1cc(O[C@H]2CN3CCC2CC3)nc(-c2ccc(O)cc2)n1 [Example 58, (R)-(-)-4-(1-azabicyclo[2,2,2]octo-3-yloxy)-2-(4-hydroxyphenyl) 6-methylpyrimidine maleate]",810
2,"COc1ccc(-c2nc(O[C@H]3CN4CCC3CC4)cc(C(C)(C)C)n2)cc1 [Example 60, (R)-(-)-4-(1-azabicyclo[2,2,2]octo-3-yloxy)-6-tert-butyl-2-(4-methoxyphenyl)pyrimidine maleate]",3100
3,"Cc1cc(O[C@H]2CN3CCC2CC3)nc(-c2ccc(F)cc2)n1 [Example 27, (R)-(-)-4-(1-azabicyclo[2,2,2]octo-3-yloxy)-2-(4-fluorophenyl) 6-methylpyrimidine maleate]",170
4,"Fc1ccc(-c2nc(O[C@H]3CN4CCC3CC4)cc(C(F)(F)F)n2)cc1 [Example 63, (R)-(-)-4-(1-azabicyclo[2,2,2]octo-3-yloxy)-2-(4-fluorophenyl) 6-trifluoromethylpyrimidine maleate]",600
5,"Cc1cc(O[C@H]2CN3CCC2CC3)nc(-c2ccc(Cl)cc2)n1 [Example 44, (R)-(-)-4-(1-azabicyclo[2,2,2]octo-3-yloxy)-2-(4-chlorophenyl) 6-methylpyrimidine maleate]",240
